Results taken from ChEMBL document CHEMBL1201862, “PubChem BioAssay data set” (2004).
Activity calls are given as the source filed them.

Tests used:
[1] = Luminescence-based cell-based high throughput dose response assay to identify activators of the DAF-12 from the parasite S. stercoralis (ssDAF-12).; assay type: functional
[2] = molecular target: T1, Oxysterols receptor LXR-beta (Homo sapiens, UniProt P55055); assay: LXR agonists, Gal4 luciferase reporter, dose response, counter-screen for ssDAF-12 agonist project, cell-based, luminescence, HEK293, S. stercoralis campaign (AID 720737); assay type: functional; conditions: read-out: IC50 (the source's name)
T1 sequence (P55055 whole entry): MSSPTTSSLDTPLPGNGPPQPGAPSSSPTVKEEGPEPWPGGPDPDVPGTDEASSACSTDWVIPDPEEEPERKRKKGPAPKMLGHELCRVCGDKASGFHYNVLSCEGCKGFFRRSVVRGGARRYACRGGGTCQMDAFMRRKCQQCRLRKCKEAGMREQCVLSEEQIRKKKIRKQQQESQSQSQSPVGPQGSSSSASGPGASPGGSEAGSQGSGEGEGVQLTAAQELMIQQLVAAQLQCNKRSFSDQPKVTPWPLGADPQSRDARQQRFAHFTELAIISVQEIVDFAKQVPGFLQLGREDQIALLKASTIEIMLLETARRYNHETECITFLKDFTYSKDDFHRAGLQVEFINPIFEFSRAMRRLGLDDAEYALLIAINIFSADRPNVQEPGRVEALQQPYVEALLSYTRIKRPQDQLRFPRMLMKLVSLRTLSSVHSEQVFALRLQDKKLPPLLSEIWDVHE

[3] = molecular target: T2, DNA repair and recombination protein RAD54-like (Homo sapiens, UniProt Q92698); assay: RAD54 Holliday junction migration blockers – biochemical, fluorescence, cherry-picked samples, dose series, confirmation (AID 651657); assay type: functional
T2 sequence (Q92698 whole entry): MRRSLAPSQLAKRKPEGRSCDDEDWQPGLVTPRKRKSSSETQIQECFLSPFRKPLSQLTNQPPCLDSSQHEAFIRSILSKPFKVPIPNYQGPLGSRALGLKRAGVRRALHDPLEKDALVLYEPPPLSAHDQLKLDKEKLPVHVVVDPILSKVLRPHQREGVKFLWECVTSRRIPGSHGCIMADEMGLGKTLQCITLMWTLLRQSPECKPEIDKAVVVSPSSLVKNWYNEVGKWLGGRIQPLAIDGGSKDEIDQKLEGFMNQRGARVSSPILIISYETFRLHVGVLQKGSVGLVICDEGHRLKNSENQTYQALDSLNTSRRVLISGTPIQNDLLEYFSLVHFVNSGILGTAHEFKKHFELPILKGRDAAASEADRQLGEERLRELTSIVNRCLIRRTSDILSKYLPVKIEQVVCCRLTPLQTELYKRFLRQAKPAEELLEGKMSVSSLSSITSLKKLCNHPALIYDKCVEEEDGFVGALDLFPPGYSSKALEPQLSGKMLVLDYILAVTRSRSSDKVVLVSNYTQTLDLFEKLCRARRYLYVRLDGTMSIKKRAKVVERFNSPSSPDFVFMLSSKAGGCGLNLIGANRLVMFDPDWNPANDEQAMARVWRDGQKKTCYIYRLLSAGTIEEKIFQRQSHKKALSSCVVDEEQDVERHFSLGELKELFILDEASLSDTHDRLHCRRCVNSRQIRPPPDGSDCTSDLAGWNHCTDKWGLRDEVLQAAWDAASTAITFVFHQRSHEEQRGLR

[4] = molecular target: T3, Histone-lysine N-methyltransferase NSD2 (Homo sapiens, UniProt O96028); assay type: biochemical
T3 sequence (O96028 whole entry): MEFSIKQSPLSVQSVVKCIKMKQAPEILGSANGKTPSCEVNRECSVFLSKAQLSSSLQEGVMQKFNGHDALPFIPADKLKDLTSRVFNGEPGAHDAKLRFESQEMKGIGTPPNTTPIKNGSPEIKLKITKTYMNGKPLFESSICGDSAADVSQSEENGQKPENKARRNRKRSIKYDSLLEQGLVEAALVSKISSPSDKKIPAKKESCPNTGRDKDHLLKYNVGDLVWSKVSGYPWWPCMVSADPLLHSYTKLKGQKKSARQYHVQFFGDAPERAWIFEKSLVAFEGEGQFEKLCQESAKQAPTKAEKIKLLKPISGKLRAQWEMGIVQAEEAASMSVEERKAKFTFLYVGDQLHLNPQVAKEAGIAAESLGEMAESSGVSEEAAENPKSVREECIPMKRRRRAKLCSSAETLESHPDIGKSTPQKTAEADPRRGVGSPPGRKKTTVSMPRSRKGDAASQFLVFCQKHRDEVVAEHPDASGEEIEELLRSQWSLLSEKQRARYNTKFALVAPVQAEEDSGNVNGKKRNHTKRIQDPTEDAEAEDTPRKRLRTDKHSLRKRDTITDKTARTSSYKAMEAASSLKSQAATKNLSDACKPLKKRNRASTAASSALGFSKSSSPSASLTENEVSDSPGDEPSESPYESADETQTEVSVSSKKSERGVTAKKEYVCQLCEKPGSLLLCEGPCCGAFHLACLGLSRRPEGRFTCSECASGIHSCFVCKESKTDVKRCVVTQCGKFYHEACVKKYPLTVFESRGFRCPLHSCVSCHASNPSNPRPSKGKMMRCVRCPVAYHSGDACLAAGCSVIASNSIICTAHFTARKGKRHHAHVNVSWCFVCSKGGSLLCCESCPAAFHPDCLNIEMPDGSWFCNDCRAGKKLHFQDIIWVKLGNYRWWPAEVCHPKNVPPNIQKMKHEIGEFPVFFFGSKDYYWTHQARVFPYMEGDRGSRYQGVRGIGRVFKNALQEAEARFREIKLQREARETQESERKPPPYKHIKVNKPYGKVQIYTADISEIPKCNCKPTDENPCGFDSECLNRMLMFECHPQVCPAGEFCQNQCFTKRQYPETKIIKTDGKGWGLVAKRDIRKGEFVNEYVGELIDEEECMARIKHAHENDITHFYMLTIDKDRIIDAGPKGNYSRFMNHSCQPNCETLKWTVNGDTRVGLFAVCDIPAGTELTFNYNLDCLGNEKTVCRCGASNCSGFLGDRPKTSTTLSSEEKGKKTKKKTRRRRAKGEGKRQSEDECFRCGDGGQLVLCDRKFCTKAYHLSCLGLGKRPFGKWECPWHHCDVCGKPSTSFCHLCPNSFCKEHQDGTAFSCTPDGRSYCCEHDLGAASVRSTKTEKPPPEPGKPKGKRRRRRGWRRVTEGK

Kallikrein-7 = Kallikrein-7 (Homo sapiens, UniProt P49862); assay: Fluorescence Intensity-based biochemical primary high throughput dose response assay to identify activators of kallikrein-7 (K7) zymogen.
Sequence of Kallikrein-7 (P49862 whole entry): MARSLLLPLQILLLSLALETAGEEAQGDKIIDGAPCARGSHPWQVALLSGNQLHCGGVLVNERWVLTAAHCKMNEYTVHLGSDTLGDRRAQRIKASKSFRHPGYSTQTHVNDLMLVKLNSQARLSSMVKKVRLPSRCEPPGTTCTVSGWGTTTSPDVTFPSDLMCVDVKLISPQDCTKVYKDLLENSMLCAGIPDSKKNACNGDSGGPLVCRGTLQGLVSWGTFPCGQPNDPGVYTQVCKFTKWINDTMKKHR

Paired box protein Pax-8 = Paired box protein Pax-8 (Homo sapiens, UniProt Q06710); assay: PAX8 transcriptional activity inhibition in RMG-I – RMG-I cells, luciferase, cherry-pick, dose response (AID 687027); assay type: functional, cell-based;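 also: luciferase reporter driven by Pax8 target thyroperoxidase promoter measured by SteadyGlo luminescence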
Sequence of Paired box protein Pax-8 (Q06710 whole entry): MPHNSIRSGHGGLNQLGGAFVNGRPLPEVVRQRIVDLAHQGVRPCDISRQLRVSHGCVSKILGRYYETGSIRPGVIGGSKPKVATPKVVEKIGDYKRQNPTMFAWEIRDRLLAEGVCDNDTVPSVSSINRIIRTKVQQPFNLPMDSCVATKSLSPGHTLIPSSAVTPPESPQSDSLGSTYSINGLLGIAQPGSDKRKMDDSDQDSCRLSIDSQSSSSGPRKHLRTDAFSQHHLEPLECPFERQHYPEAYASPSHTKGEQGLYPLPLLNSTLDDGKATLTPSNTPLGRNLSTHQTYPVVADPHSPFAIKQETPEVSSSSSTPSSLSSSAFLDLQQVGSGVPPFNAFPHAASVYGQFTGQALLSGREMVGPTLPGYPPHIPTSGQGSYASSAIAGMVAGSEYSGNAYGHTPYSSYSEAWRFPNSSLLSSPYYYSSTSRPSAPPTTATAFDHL

[5] = OVCAR-3 cell viability loss – plate reader, dry powder samples, PAX8 inhibitor project, dose response (AID 743044); assay type: functional, cell-based
[6] = general cell-killing toxicity readout – plate reader, dry powder samples, cytotoxicity control for PAX8 inhibitor project, dose response (AID 743021); assay type: functional, cell-based
cells = assay type: functional
[7] = A549 cell cytotoxicity, dose response, cytotoxicity control, plate reader, cherry-pick, antagonist series (AID 743412); assay type: functional, cell-based
[8] = blockers of bursicon-stimulated LGR2 cAMP reporter – cell-based, HEK293, CRE-luciferase reporter, cherry pick, set 2, dose response (AID 743343); assay type: functional;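 also: transfected cells were stimulated with diluted bursicon conditioned medium after compound addition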
[9] = blockade of melanocortin 4 receptor signaling – cell-based, plate reader, cherry pick, counter-screen for LGR2 antagonist project, dose response (AID 743444); assay type: functional;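 also: transfected HEK 293 cells stimulated with alpha-MSH peptide; potency of inhibitors of the alpha-MSH evoked signal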
[10] = viability loss in HEK293 cells – cell-based, plate reader, cherry-picked samples, cytotoxicity control, dose response (AID 743446); assay type: functional
[11] = growth inhibition of yeast DHODH-expressing 3D7 parasites – SYBR Green, dry powder samples, dose response (AID 1159570); assay type: functional, cell-based;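 also: parasite growth measured after 72 hours of compound exposure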
[12] = P. falciparum Dd2 growth inhibitors, dose response, SYBR Green, cherry-picked samples (AID 1159567); assay type: functional, cell-based
[13] = Dd2 malaria parasite growth inhibition potency – SYBR Green, dry powder samples, dose response (AID 1159566); assay type: functional, cell-based;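 also: potency for growth inhibition with lower SYBR green DNA signal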
[14] = growth inhibition of PfATP4-mutant resistant parasites – NITD609-resistant line, SYBR Green, dry powder, dose response (AID 1159571); assay type: functional, cell-based;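 also: parasites synchronized at ring stage by sorbitol before testing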
[15] = viability loss in Vero cells – cytotoxicity control for Vif-APOBEC3G degradation inhibitor project, dose response (AID 1117358); assay type: functional; conditions: Vero
[16] = T. cruzi growth inhibition in host cells, dose response, cell-based, plate reader, dry powder, set 2 (AID 652275); assay type: functional

With C(=N\Nc1nc2ccccc2s1)/c1ccc2c(c1)OCO2 the IC50 [1] was > 67.5 µM (inactive) and the EC50 [2] was > 67.5 µM (inactive).

In the case of CCNCCNc1ccc([N+](=O)[O-])c2cccnc12, the AC50 [3] was 29.7 µM (active) and the AC50 [4] was 13.6 µM (active).

For COC(=O)c1cc(-c2ccc(OC)cc2)nc2nc(SC)[nH]c(=O)c12, the EC50 (Kallikrein-7) was 48 µM (inactive).

With CC(C)CC#Cc1ccc2c(c1)O[C@H](CN(C)Cc1ccc(C(=O)O)cc1)[C@@H](C)CN([C@H](C)CO)S2(=O)=O the AC50 (Paired box protein Pax-8) was 19.3 µM (active), the AC50 [5] was 57.2 µM (active) and the AC50 [6] was 48 µM (active).

In the case of O=C(COc1ccc2c(c1)CCC2)Nc1ccccn1, the IC50 (cells) was 39.2 µM (active), the AC50 [7] was 45.3 µM (active) and the AC50 [8] was 7.18 µM (active). For the same molecule, the AC50 [9] was 6.74 µM (active) and the AC50 [10] was 33.3 µM (active).

In the case of COc1ccc(C#Cc2ccc3c(c2)[C@H]2[C@H](CCN2C(=O)C2CCCC2)[C@@H](CO)N3)cc1, the AC50 [11] was 1.99 µM (active), the AC50 [12] was 2.04 µM (active) and the AC50 [13] was 1.67 µM (active). The AC50 [14] was 2.2 µM (active).

With CCc1cc2c(N3CCCCC3)ncnc2s1 the CC50 [15] was > 40 µM (active).

With CCCCCCC1(C)N=C(S)N(c2ccccc2)N1 (stereo not drawn) the IC50 [1] was > 67.6 µM (inactive) and the EC50 [2] was > 67.6 µM (inactive).

For O=C(O)CCc1nn2c3ccccc3nc2n(CCN2CCCCC2)c1=O, the EC50 (Kallikrein-7) was 34.8 µM (inactive).

For CC(C)(C)[S+]([O-])N1Cc2cc(C(=O)NCc3ccc4c(c3)OCO4)nc(-c3cccc(-c4cccc(F)c4)c3)c2[C@@H]1CCO (stereo partly drawn), the AC50 [16] was 1.74 µM (active).

For COc1c(N2CCN(C(=S)Nc3ccccc3F)C(C)C2)c(F)cc2c(=O)c(C(=O)O)cn(C3CC3)c12 (stereo not drawn), the EC50 (Kallikrein-7) was > 69.5 µM (inactive).
